Assay results taken from patent publication US6197760A (priority 2000, dated 2001).
“Also recorded” adds a separate entry of the source. Where two headings read alike, the source gives them in different places.

Key:
HeLa cells = settings: in vitro; cited from earlier work
[1] = tested on: MCF-7 mammary tumor xenograft; parameters: species or system human; settings: in vivo; for Days delay (T-C): sc
mammary tumor 16/C = tested on: mammary tumor 16/C; parameters: species or system murine; settings: mouse, in vivo
M5076 sarcoma [2] = test: Response of s.c. implanted M5076 sarcoma (Table 4); assay type: in vivo, murine; settings: for days T-C: Table 4, dose not given
Procedure: Response of S.C. Implanted M5076 Sarcoma to Treatment with
The compounds were injected i.p. daily on days 11-15.

LOX-IMVI melanoma = test: Evaluation against i.p. implanted LOX-IMVI melanoma (Table 6); assay type: in vivo, human; settings: for 55-Day Surv./Total / % ILS / Median Day of Death: IP, Q1DX1 (1); for increase in life span (ILS) / survivors: Table 6
Procedure: BM-IPM was evaluated vs. human LOX-IMVI melanoma and produced a 52% increase in life span (ILS) and 20% survivors, while IPM yielded an identical ILS with no survivors.
Evaluation of BM-IPM Against I.P. Implanted Human
Treatment: IP: Q1DX1 (1) Therapeutic Response

P388 leukemia [3] = tested on: P388 leukemia; parameters: species or system murine; settings: mouse, in vivo; for 45-Day Surv/Total / % ILS / Approx. Net Log10 Change In Tumor Burden at End of Rx / Median Day of Death: ip, 100 mg/kg
[4] = tested on: MX-1 mammary tumor xenograft; assay type: in vivo, human
P388 leukemia [5] = settings: mouse, in vivo; cited from earlier work
Lewis lung carcinoma = settings: mouse, in vivo; for % ILS (increase in life span, excluding survivors) / Log kill total (Log10 cell kill) / Tumour-free survivors: ip
L1210/CPA leukemia = assay type: in vivo, male CDF1 mice
in vivo [6] = settings: mouse, ip
M5076 sarcoma [7] = settings: mouse, in vivo; cited from earlier work
in vivo [8] = settings: mouse, ip, MTD Dosage (highest non-toxic dose, LD10 or less)
[9] = patients treated with Ifos; cited from earlier work
[10] = tested on: experimental leukemias and solid tumors; parameters: species or system mice and rats; settings: in vivo
[11] = 18 mg/kg i.p. daily on days 11-15
[12] = 27 mg/kg i.p. daily on days 11-15
[13] = 40 mg/kg i.p. daily on days 11-15
[14] = L1210/CPA, i.p. day 2 only at MTD (CPA 200, Ifos 431, IPM 100 mg/kg)
[15] = L1210/0, i.p. day 2 only at MTD (CPA 200, Ifos 431, IPM 100 mg/kg)

## O=P(O)(NCCBr)NCCBr [BB-IPM]
HeLa cells
  cytotoxicity to HeLa cells: cytotoxic to HeLa cells in vitro
[1]
  Days delay (T-C): 1.7

## N[C@@H](Cc1ccc(N(CCCl)CCCl)cc1)C(=O)O [Melphalan]
[1]
  Days delay (T-C): 28.1

## CS(=O)(=O)OCCNP(=O)(O)NCCBr [BM-IPM]
Mammary tumor 16/C
  tumor response / comparative activity vs. 16/C: superior to the clinical drugs CPA and Ifos and to MM-IPM
M5076 sarcoma [2]; [11]
  Days delay (T-C): 0.8 days
  Days to 2 Doublings: 10.1 days
  Tumor-free Surv/Total: 0/6
M5076 sarcoma [2]; [12]
  Days delay (T-C): 7.2 days
  Days to 2 Doublings: 16.5 days
  Tumor-free Surv/Total: 0/6
M5076 sarcoma [2]; [13]
  Days to 2 Doublings: Toxic
  Tumor-free Surv/Total: 0/6
M5076 sarcoma [2]
  days T-C: 7.2 days
[1]
  Days delay (T-C): 4.7
LOX-IMVI melanoma
  comparative activity vs. LOX melanoma: comparably active to IPM but less active than CPA
  increase in life span (ILS): 52%
  survivors: 20%
LOX-IMVI melanoma; 15 mg/kg/dose
  55-Day Surv./Total: 0/5
  % ILS: +26%
  Median Day of Death: 24.0 days
LOX-IMVI melanoma; 30 mg/kg/dose
  55-Day Surv./Total: 1/5
  % ILS: +52%
  Median Day of Death: 29.0 days
P388 leukemia [3]
  log cell kill: 5.5 log
  45-Day Surv/Total: 0/5
  % ILS: +73
  Approx. Net Log10 Change In Tumor Burden at End of Rx: -5.5
  Median Day of Death: 19.0
[4]; experiment analogous to MCF-7
  activity vs. MX-1: good activity; also recorded: more active but less so than CPA and Ifos

## O=P(O)(NCCCl)NCCBr [BC-IPM]
HeLa cells
  cytotoxicity to HeLa cells: cytotoxic to HeLa cells in vitro
[1]
  Days delay (T-C): 5.8

## CS(=O)(=O)OCCCNP(=O)(O)NCCCl [CM3-IPM]
P388 leukemia [3]
  45-Day Surv/Total: 0/5
  % ILS: +9
  Approx. Net Log10 Change In Tumor Burden at End of Rx: -0.7
  Median Day of Death: 12.0

## O=P1(NCCCl)OCCCN1CCCl (centres unmarked) [Ifos, ifosfamide]
P388 leukemia [5]
  comparative activity vs. P388 leukemia, historically: comparably active to CM-IPM
Mammary tumor 16/C
  tumor response / comparative activity vs. 16/C: none of which caused tumor regression
Lewis lung carcinoma
  comparative activity against Lewis lung carcinoma: equivalent activity at equal host toxicity
  cure rate: 50-70%
  % ILS (increase in life span, excluding survivors): 55
  Log kill total (Log10 cell kill): > 4.5
  Tumour-free survivors: 7/10
L1210/CPA leukemia; mouse, in vivo
  % ILS (dying mice only): +85
  Day 60 survivors/total: 0/10
  Net log10 reduction in tumor burden after therapy: 5
L1210/CPA leukemia; mouse, in vivo, ip, 289 mg/kg
  % ILS (dying mice only): +57
  Day 60 survivors/total: 0/10
  Net log10 reduction in tumor burden after therapy: 4
In vivo [6]
  MTD: 300 mg/kg
[1]
  Days delay (T-C): > 39.7
L1210/0 leukemia; mouse, in vivo
  % ILS (dying mice only): +185
  Day 60 survivors/total: 0/10
  Net log10 reduction in tumor burden after therapy: 8
L1210/0 leukemia; mouse, in vivo, ip
  MTD Dosage (highest non-toxic dose, LD10 or less): 289 mg/kg
L1210/0 leukemia; mouse, in vivo, ip, 289 mg/kg
  % ILS (dying mice only): +114
  Day 60 survivors/total: 0/9
  Net log10 reduction in tumor burden after therapy: 8
M5076 sarcoma [7]
  comparative activity vs. M5076 sarcoma, historically: comparably active to CM-IPM
In vivo [8]
  MTD: 431 mg/kg
[4]; in vivo
  activity vs. MX-1: high activity

## O=P(O)(NCCCl)NCCCl [IPM, isophosphoramide mustard]
Mammary tumor 16/C
  tumor response / comparative activity vs. 16/C: limited regression
Lewis lung carcinoma
  comparative activity against Lewis lung carcinoma: equivalent activity at equal host toxicity
  cure rate: 50-70%
  % ILS (increase in life span, excluding survivors): 34
  Log kill total (Log10 cell kill): > 2.1
  Tumour-free survivors: 6/10
M5076 sarcoma [2]; [11]
  Days delay (T-C): 1.0 days
  Days to 2 Doublings: 10.3 days
  Tumor-free Surv/Total: 0/6
M5076 sarcoma [2]; [12]
  Days delay (T-C): 3.3 days
  Days to 2 Doublings: 12.6 days
  Tumor-free Surv/Total: 0/6
M5076 sarcoma [2]; [13]
  Days delay (T-C): 6.1 days
  Days to 2 Doublings: 15.4 days
  Tumor-free Surv/Total: 0/6
M5076 sarcoma [2]
  days T-C: 6.1 days
L1210/CPA leukemia; [14]
  % ILS (dying mice only): +114%
  Net log10 reduction in tumor burden after therapy: 7 log10
L1210/CPA leukemia; L1210/CPA, i.p. day 2 only at MTD (CPA 200, Ifos 431, IPM 100 mg/kg), tumor burden at start 6.0 × 10^7 cells
  Day 60 survivors/total: 1/10
In vivo [6]
  MTD: 100 mg/kg
[1]
  Days delay (T-C): 33.9
[9]
  metabolite of Ifos in patients: major metabolite
LOX-IMVI melanoma; 40 mg/kg/dose
  55-Day Surv./Total: 0/5
  % ILS: +52%
  Median Day of Death: 29.0 days
LOX-IMVI melanoma
  increase in life span (ILS): identical ILS
  survivors: no survivors
P388 leukemia [3]
  log cell kill: 4.8 log
  45-Day Surv/Total: 1/5
  % ILS: +64
  Approx. Net Log10 Change In Tumor Burden at End of Rx: -4.8
  Median Day of Death: 18.0
L1210/0 leukemia; [15]
  % ILS (dying mice only): +128%
  Net log10 reduction in tumor burden after therapy: 8 log10
L1210/0 leukemia; L1210/0, i.p. day 2 only at MTD (CPA 200, Ifos 431, IPM 100 mg/kg), tumor burden at start 8.5 × 10^8 cells
  Day 60 survivors/total: 0/10
[10]
  comparative therapeutic efficacy against experimental leukemias and solid tumors: generally comparable to that of CPA and Ifos
In vivo [8]
  MTD: 100 mg/kg
[4]; experiment analogous to MCF-7
  activity vs. MX-1: good activity; also recorded: more active but less so than CPA and Ifos

## CS(=O)(=O)OCCNP(=O)(O)NCCF [FM-IPM]
P388 leukemia [3]
  45-Day Surv/Total: 0/5
  % ILS: +10
  Approx. Net Log10 Change In Tumor Burden at End of Rx: -1.4
  Median Day of Death: 13.0

## CS(=O)(=O)OCCNP(=O)(O)NCCCl [CM-IPM]
Mammary tumor 16/C
  tumor response / comparative activity vs. 16/C: superior to the clinical drugs CPA and Ifos and to MM-IPM; also recorded: comparable to BM-IPM vs. 16/C mammary tumor, and superior to CPA and Ifos vs. 16/C tumor
M5076 sarcoma [2]; [11]
  Days delay (T-C): 2.3 days
  Days to 2 Doublings: 11.6 days
  Tumor-free Surv/Total: 0/6
M5076 sarcoma [2]; [12]
  Days delay (T-C): 12.2 days
  Days to 2 Doublings: 21.5 days
  Tumor-free Surv/Total: 0/6
M5076 sarcoma [2]; [13]
  Days delay (T-C): 23.2 days
  Days to 2 Doublings: 32.5 days
  Tumor-free Surv/Total: 0/6
M5076 sarcoma [2]
  days T-C: 23.2 days
[1]
  comparative activity vs. MCF-7: equal in activity to Ifos, slightly superior to IPM and melphalan (the positive control) and significantly superior to CPA and all of the other analogs; also recorded: superior to MM-IPM, BC-IPM and CPA, slightly more active than IPM, and equally active to Ifos
  Days delay (T-C): > 39.7
P388 leukemia [3]
  log cell kill: 6.1 log
  45-Day Surv/Total: 0/5
  % ILS: +82
  Approx. Net Log10 Change In Tumor Burden at End of Rx: -6.1
  Median Day of Death: 20.0
[10]
  comparative activity vs. three experimental leukemias and solid tumors: superior to IPM and other IPM analogs, including MM-IPM, vs. all three tumors
[4]; experiment analogous to MCF-7
  activity vs. MX-1: only modest activity; also recorded: modestly active relative to CPA and Ifos
